From patent publication US20160151403A1, “SMALL MOLECULE MODULATORS OF P53 FAMILY SIGNALING” (The Trustees of the University of Pennsylvania, priority 2006, published 2016)

Key:
HCT116/p53^+/+ cells = assay: Flow cytometry cell cycle profile, HCT116/p53(+/+); format: cell-based, human; settings: #17 200 μM, #23 10 μM
Protocol: FIGS. 3A-3F show: Structures (A) of isolated compounds and summary of their effects on the p53 family and transcriptional targets (B). Cell cycle profiles of HCT/p53(+/+) and HCT/p53(−/−) in response to treatment by selected compounds (C-E). The dose of #17 was 200 μM and for #23 it was 10 μM. F, p73 protein levels were elevated in HCT116/p53(−/−) cells in response to treatment by selected compounds at various concentrations as indicated;
Adherent cells in a 6-well plate were trypsinized and collected in 15 ml centrifuge tubes to which were added the originally floating cells. The collected cells were ethanol-fixed and stained with propidium iodide (Sigma, St. Louis, Mo.). The DNA content of the stained cells was then measured using an Epics Elite flow cytometer (Beckman-Coulter, Fullerton, Calif.).
The ability of selected compounds from the chemical library screen to induce apoptosis of human colon tumor cells and the dependence of their effects on endogenous p53 status was further evaluated.

[1] = tested on: p73 in HCT116/p53^−/− cells; assay: Effect of p73 knockdown (si-p73 retrovirus) on compound-induced p53-responsive transcriptional activity; format: cell-based, human; settings: retrovirus mediated si-p73, HCT116/p53^−/− cells, FIG. 5D
Protocol: FIGS. 5A-5D show p53 transcriptional activity is induced in DLD1 xenografts and effects of knockdown of p73 by siRNA on drug-induced transcriptional activity. DLD1/PG13 cells were inoculated subcutaneously with 5 million cells. At 24 hours later mice were treated with selected compounds (100 mg/kg for #1, 50 mg/kg for #14 and #17, and 10 mg/kg for #23), and subsequently bioluminescence imaging was carried out after 16 hours. Two weeks later, tumor masses were weighed. A, bioluminescence imaging of p53 transcriptional activity induced in vivo. B, calculated fold-induction of p53 transcriptional activity. C, inhibition of tumor growth by selected compounds. D, effects of si-TAp73 on the transcriptional activity induced by selected compounds;
pBS/U6 vector containing TAp73 RNAi were kindly provided by Leif W. Ellisen (20), Harvard Medical School, from which the expression cassette was removed and recombined to pSIREN-RetroQ (Clontech Laboratories, Inc. Mountain View, Calif.), which was reconstructed to express a blasticidin-resistant marker.
The questioned whether the p53 family member p73 is involved in the p53-responsive transcriptional activity induced by the compounds identified was then tested. p63, the other p53 family member, was not tested, because the TA form of p63 is rarely expressed in malignant and normal tissues except for germ cells of the ovary and testis.

[2] = tested on: HCT116/p53(−/−) xenografts; assay: In vivo anti-tumor assay, HCT116/p53(-/-) xenografts in Balb/c nude mice; settings: intra-peritoneal, #1 100 mg/kg, #14 50 mg/kg, #23 10 mg/kg; 7 days after treatment
Protocol: Balb/c nude mice were inoculated subcutaneously with 2 million HCT116/p53(−/−) cells in Matrigel on each flank. 6 mice were used in each group, in each of the two experiments. When the tumor mass reached about 3-5 mm, mice were treated with the compounds alone or following a single dose of TRAIL at 100 μg/mouse in experiment 1. At 7 days after treatment, mice were sacrificed and the tumor masses were weighted. The doses used were 100 mg/kg for #1, 50 mg/kg for #14, and 10 mg/kg for #23;
Balb/c nude mice (Charles River Laboratories, Wilmington, Mass.) were inoculated subcutaneously with 2 million HCT116/p53(−/−) cells in an equal volume of Matrigel. When tumor masses reached about 3-5 mm in diameter, mice were treated with the compounds alone by intraperitoneal injection or following a single intravenous dose of TRAIL at 100 μg/mouse. At 7 days after treatment, mice were sacrificed and the tumor masses were weighed. DLD1/PG13 cells were inoculated subcutaneously with 5 million cells. At 24 hours later mice were treated with selected compounds, and subsequently bioluminescence imaging was carried out after 16 hours as previously described [Wang, W. & El-Deiry, W. S. (2003) Cancer Biol Ther 2, 196-202].
Compounds #1, #14, #17, and #23 were tested in colon-tumor xenograft-bearing mice in order to evaluate their toxicities and potential anti-tumor effects (FIG. 4). […] The initial doses were chosen below maximal tolerated doses based on the NCI DTP toxicology databases for chemical compound testing in vivo so that mice would survive drug administration and allow subsequent evaluation of anti-tumor effects. p53-null HCT116 xenografts were first tested to document anti-tumor effects in p53-deficient tumors and an experiment to simulate therapy of established tumors was designed. A total of 2×10^6 p53-null HCT116 cells were implanted on opposite flanks subcutaneously in each of 6 nude mice in each group. When tumor masses grew to about 3-5 mm in diameter, drugs were administered intra-peritoneally (#1: 100 mg/kg; #14: 50 mg/kg; #23: 10 mg/kg), and on the next day additional groups received intravenous TRAIL (15) (100 μg/mice via the tail vein). Tumor weights were determined at 7 days later. […] Nonetheless in the future it may be possible to modify the structure of #17 or identify doses where synergistic interactions with TRAIL may be observed.

[3] = tested on: p53 phosphorylation at ser20 and acetylation at lys382; assay: Western blot of p53 phosphorylation and acetylation (DNA damage signaling); format: cell-based, human; settings: 16 h; for p53 acetylation at lys382: HCT116/p53(+/+) cells; for p53 phosphorylation at ser20: HCT116/p53(+/+)/PG13 and SW480 cells
Protocol: FIGS. 7A-7C show: p53 levels and posttranslational modifications after treatment by selected compounds. (A) HCT116/p53(+/+) cells were treated with adriamycin, compounds nos. 1, 14, 17, and 23 for 16 h, and p53 and acetylated p53 levels were detected by Western blot. Nonspecific bands (Lower) serve as a loading control. (B) HCT116/p53(+/+)/PG13 cells were treated with adriamycin or compounds as indicated for 16 h and p53, phosphorylated p53 (ser20) levels and firefly luciferase protein expression were detected by Western blot. (C) SW480 cells were treated with compounds as indicated for 16 h, and p53 and phosphorylated p53 (ser20) levels were detected by Western blot. CP, CP-31398;
Cells were collected and protein concentration was quantified by the Bio-Rad protein assay prior to SDS-PAGE. Proteins were transferred to a PVDF membrane (Immobilon-P, Millipore Corporation, Bedford, Mass.) by a semi-dry transfer apparatus (Bio-Rad Laboratories, Hercules, Calif.). The membranes with transferred proteins were blotted with 10% W/V non-fat dry milk and then incubated with the primary antibody and subsequently secondary antibodies, which were labelled by horseradish peroxidase, or infrared dyes (IR). Signals were visualized by either ECL (Amersham Pharmacia Biotech, England, UK) and exposed to an X-ray film, or scanned by the Odyssey Infared Imaging System (LI-COR Biosciences, Lincoln, Nebr.). Anti-p53, DO-1, was from Santa Cruz biotechnology, Inc. (Santa Cruz, Calif.), anti-p73 (AB-1) and anti-p21 (AB-1) were obtained from Calbiochem (San Diego, Calif.). Anti-ser20 of p53 Cell were obtained from Signaling Technology (Danvers, Mass.) and anti-DR5 antibody was obtained from Cayman Chemical (Ann Arbor, Mich.).
In order to determine whether DNA damage signaling is involved in the mechanism of action of selected compounds, Western blot was used to test the status of phosphorylation and acetylation of p53, which are sensitive indicators of DNA damage.

SMILES	sub-G1 peak (apoptosis) (HCT116/p53^+/+ cells)	compound-induced p53-responsive transcriptional activity after knockdown of p73 [1]	anti-tumor effect (tumor weights) [2]	p53 acetylation at lys382 [3]	p53 phosphorylation at ser20 [3]
CO[C@H]1[C@@H](O)[C@@H](C)O[C@H](O[C@H]2[C@H](Oc3cccc4c(O)c5c(=O)oc6ccc(C)c7c(=O)oc(c34)c5c67)O[C@H](C)[C@H](O)[C@@H]2O)[C@@H]1O [#1]	induced a sub-G1 peak characteristic of apoptosis	suppressed	anti-tumor effects were observed	–	–
COc1cccc2c1C(=O)c1c(O)c3c(c(O)c1C2=O)CC(O)(/C(C)=N/O)CC3OC1CC(N)C(O)C(C)O1 (stereo not shown) [#14]	induced a sub-G1 peak characteristic of apoptosis	suppressed	anti-tumor effects were observed	strong inducers	strong inducers of p53 phosphorylation at ser20
COc1cccc2c1C(=N)c1c(O)c3c(c(O)c1C2=O)C[C@@](O)(C(C)=O)C[C@@H]3O[C@H]1C[C@H](N)[C@H](O)[C@H](C)O1 [#23]	induced a sub-G1 peak characteristic of apoptosis	suppressed	anti-tumor effects were observed	strong inducers	strong inducers of p53 phosphorylation at ser20
